Experimental data reported in patent publication US7939091B2, “Biorational repellents obtained from terpenoids for use against arthropods” (Iowa State University Research Foundation, Inc., priority 1999, dated 2011).

Experiments:
Format in all cases: in vivo
[1] = system: northern house mosquito, Culex pipiens; assay: Static-air choice-test apparatus, percentage and contact repellency bioassay; conditions: 15 minutes
Experimental: A static-air choice-test apparatus as described above was used to determine the behavioral effects on the insects in this study. The apparatus consisted of a 9×60-cm section of glass tubing with a 2-cm hole drilled at the midpoint along the length for central introduction of the insects. All of the testing was conducted in an environmental chamber at 26° C.
Treatments included catnip essential oil, obtained by steam distillation as described herein and in Peterson, et al., J. Econ. Entomol., 2002, 95, 377-380. Osage orange essential oil, obtained by steam distillation of whole fruits previously described in Peterson, et al., J. Essential Oil Res., 2002, 14, 233-236, elemol (Augustus Oils, New Hampshire, England), and DEET (Aldrich, St. Louis, Mo.) test solutions at 1%, 0.5% and 0.1% concentrations (wt/vol). The test solutions' solvent, hexane, served as a control treatment in this assay.
One milliliter of the solution was applied to one half of a 9-cm diameter round filter paper with an area of 63.6 cm^2 and then allowed to dry before testing. […] Treated filter papers were placed inside the lids of 9-cm glass petri dishes, and placed over the ends of the glass tube. The position of the treated side, to the right or to the left, was selected by using a random-number table. Approximately fifteen unmated adult female mosquitoes were anaesthetized with CO2 and then introduced to the 9×60-cm glass cylinder through the centered 2-cm hole. Timing began two minutes after mosquito introduction, and mosquito distribution inside the static-air choice-test apparatus was observed over a 180-minute period for each treatment. Mosquito distribution (number of individuals on treated and untreated side) was recorded at 15, 30, 60, 90, 120, and 180-minute timepoints.
The data generated by this study was used to examine two measures of mosquito repellency, percentage repellency and contact repellency. Percentage repellency was calculated for with the following formula: Percentage Repellency=((Number of Individuals on Untreated Half-Number of Individuals on Treated Half)/15)×100.
Contact repellency was defined in this assay as 100% avoidance of the treated filter paper (no contact). 15, 30, 60, 90, 120, and 180-minute time-points were used to assess contact repellency for individual observations.
The experimental design was a completely randomized design using three replications of each treatment. Analysis of variance was performed on SAS (PROC GLM; SAS Version 8) to identify significant differences of percentage repellency due to treatment, and concentration. Multiple comparisions were completed using Tukey's procedure. Treatment pair-wise comparisons of contact repellency, which included data from the six time-points observed for each treatment, were completed using Fishers Exact (PROC FREQ; SAS Version 8).

[2] = system: yellow fever mosquitoes, Aedes aegypti; assay: Static-air repellency chamber, spatial and contact repellency, adult female yellow fever mosquitoes; conditions: for long term repellency (in excess of two hours): Table 20, up to 360 min; for Average Percentage Repellency Over Time: application rate 78.6 μg/cm^2
Experimental: Test Equipment. In this testing, a static air repellency chamber was used. The apparatus consisted of a 9×60-cm section of glass tubing with a 2-cm hole drilled at the midpoint along the length for central introduction of the insects. All of the testing was conducted in an environmental chamber at ambient temperatures.
Test Methods. The data for spatial repellency was collected at 15 minutes after the introduction of female yellow fever mosquitoes into a static air repellency chamber. Data for the contact repellency was collected after three hours. The concentrations used in the tests are 1% solution (1 ml of it on a 9-cm diameter filter paper). One (1) ml of a 1% (wt/vol) solution of repellent substance containing hexane as a carrier was pipetted onto a 9-cm diameter filter paper results in a concentration of 157 μg/cm^2. The solution contained the desired mass of compound to be tested added to the desired volume of hexane, e.g., for a 1% solution of catnip essential oil, […] was added to 100 ml of hexane.
One milliliter of the solution was applied to one half of a 9-cm diameter round filter paper with an area of 63.6 cm^2 and then allowed to dry before testing. […] Treated filter papers were placed inside the lids of 9-cm glass petri dishes, and placed over the ends of the glass tube. The position of the treated side, to the right or to the left, was selected by using a random-number table. Approximately fifteen unmated adult female mosquitoes were anaesthetized with CO2 and then introduced to the 9×60-cm glass cylinder through the centered 2-cm hole. Timing began 2 minutes after mosquito introduction, and mosquito distribution inside the static-air choice-test apparatus was observed over a 15-minute period for each treatment to determine spatial repellency. Basically the number of mosquitoes in the non-treated half were considered to be repelled and were counted. Percent repellency was considered to be: (Number of Individuals on Untreated Half−Number of Individuals on Treated Half)/15)×100. Contact repellency was defined in this assay as 100% avoidance of the treated filter paper-after three hours. The experimental design was a completely randomized design using six replications of each treatment.
All test methods were the same as described in Example 7, except spatial repellency over a longer period.
Test Methods. […] Also only three replications were used instead of six.

[3] = system: northern house mosquito, Culex pipiens; assay: Mosquito residual repellency bioassay (aged treated filter papers), static-air chamber
From the text: Aged applications of catnip essential oil, elemol, DEET, and hexane (control) were compared in the static-air choice-test apparatus under the same conditions as described above. The 0.5% and 0.1% (wt/vol) solutions of each test solution were made to yield the same rate of active ingredient used in the above mosquito repellency bioassay. Individually treated filter papers were then placed in a fume hood and aged for 0, 30, 60, 120, or 180-minutes, allowing volatization to occur over a set period of time. After the specified ageing period, filter papers were placed on the inside of the 9-cm glass petri dish lids, and then placed over the ends of the glass tube. The position of the treated side was randomized. Approximately […] unmated adult female mosquitoes were anaesthetized with CO2 and then introduced to the 9×60-cm glass cylinder through the centered 2-cm hole. Timing began 2 minutes after mosquito introduction, and mosquito distribution (number of individuals on treated and untreated sides) inside the static-air choice-test apparatus was recorded after 15 minutes for determination of Percentage Repellency (calculations shown under Percentage and Contact Repellency Bioassay). Experimental design was completely randomized with three replications of each aged test solution. Analysis of variance was used to identify significant differences related to active ingredient, concentration, and ageing period. Regression analysis was used to examine percentage repellency relationship to filter paper ageing.

[4] = concentration 0.1% (15.7 μg/cm^2)
[5] = concentration 0.5% (78.6 μg/cm^2)
[6] = 15.7 μg/cm^2 (0.1%), treatment aged 0 min
[7] = 15.7 μg/cm^2 (0.1%), treatment aged 30 min
[8] = 15.7 μg/cm^2 (0.1%), treatment aged 60 min
[9] = 15.7 μg/cm^2 (0.1%), treatment aged 120 min
[10] = 15.7 μg/cm^2 (0.1%), treatment aged 180 min
[11] = 78.6 μg/cm^2 (0.5%), treatment aged 0 min
[12] = 78.6 μg/cm^2 (0.5%), treatment aged 30 min
[13] = 78.6 μg/cm^2 (0.5%), treatment aged 60 min
[14] = 78.6 μg/cm^2 (0.5%), treatment aged 120 min
[15] = 78.6 μg/cm^2 (0.5%), treatment aged 180 min

Row | SMILES | Percentage Repellency [1, 4] [%] | Percentage Repellency [1, 5] [%] | Percentage Repellency ([1]; concentration 1% (157 μg/cm^2)) [%] | long term repellency (in excess of two hours) [2] | Average Percentage Repellency Over Time ([2]; 60 min) [%] | Average Percentage Repellency Over Time ([2]; 120 min) [%] | Average Percentage Repellency Over Time ([2]; 360 min) [%] | Average Percentage Repellency Over Time ([2]; Initial) [%] | Percentage Repellency Over Time [3, 6] [%] | Percentage Repellency Over Time [3, 7] [%] | Percentage Repellency Over Time [3, 8] [%] | Percentage Repellency Over Time [3, 9] [%] | Percentage Repellency Over Time [3, 10] [%] | Percentage Repellency Over Time [3, 11] [%] | Percentage Repellency Over Time [3, 12] [%] | Percentage Repellency Over Time [3, 13] [%] | Percentage Repellency Over Time [3, 14] [%] | Percentage Repellency Over Time [3, 15] [%] | other results
1 | C=CC1(C)CCC(C(C)(C)O)CC1C(=C)C (stereo not shown) [Elemol] | 63.0 | 81.3 | 74.1 | long term repellency | 52 | 43 | 35 | 56 | 35.0 | 30.8 | 49 | 20.7 | 44.8 | 84.7 | 76.5 | 96.5 | 80.8 | 76.5 | % repellency ([2]; 78.6 μg/cm^2 (equivalent to a 0.5% solution), determined at 15 minutes, three replications): 38.9%; Avoidance Frequency ([2]; Conc 1% (157 μg/cm^2), average of mosquito contact repellency over 3-hour time period): 97; Repellency (%) (15-minute spatial repellency) ([2]; Conc 1% (157 μg/cm^2), determined at 15 minutes, six replications): 63.6%; spatial and contact repellency over a 6-hour time period ([2]; other data from our lab, 6-hour time period): good spatial and very good contact repellents
2 | CCN(CC)C(=O)c1cccc(C)c1 [DEET, N,N-diethyl-3-methylbenzamide, reference compound] | 59.3 | 62.3 | 44.4 | long term repellency | 64 | 47 | 49 | 52 | 54.9 | 23.1 | 45.7 | 39 | 70.6 | 74.0 | 37 | 59 | 77.7 | 74 | 
